According to patent US20070224155A1, “Cleansing compositions and methods of reducing skin irritation” (ACCESS BUSINESS GROUP INTERNATIONAL, LLC, priority 2006, published 2007):

System: IL-1 alpha
Experiment: IL-1 alpha assay: ELISA of IL-1α secreted by fibroblast/keratinocyte co-cultures exposed to a surfactant irritant with or without mildness agent
Type: cell-based, human
Details: hand dishwashing detergent; for Percent IL-1 α Reduction AVG: average of 1%, 0.1% and 0.01%
Excerpt: IL-1 alpha is one cytokine often released near the beginning of the inflammation cascade, which ultimately leads to a human biological response resulting in visible and/or perceptual signs of irritation. Accordingly, by reducing the initial response to an irritant, such as a surfactant, the ultimate damaging reaction can be reduced, prevented, and/or eliminated.
The procedure for conducting IL-1 alpha assays is as follows: Co-cultures of fibroblasts and keratinocytes, the primary cell types found in skin, are established using 100,000 fibroblasts and 200,000 keratinocytes per well. These types of cells are those found in the outer layers of the skin exposed to detergent during every day use. An irritant, for example the surfactant package used in a dish detergent (Example 1 below), is then applied to the coculture wells to initiate the production and secretion of pro-inflammatory cytokines by the cells. One such cytokine is human interleukin-1 alpha or IL-1α. In the body, this protein is a key mediator of the host response to infections and various inflammatory challenges. Once produced, IL-1α stimulates production of other pro-inflammatory cytokines and bioactive molecules. Together, these biological molecules send the message that something is wrong and the keratinocytes and fibroblasts need help. This is called the inflammatory response.
The amount of secreted IL-1α is directly related to the intensity of the inflammatory response. In vitro, the concentration of IL-1α secreted by the co-culture cells in response to the irritant can be measured via a precise laboratory technique known as an Enzyme Linked Immuno-Sorbent Assay or ELISA. Thus, to test botanical materials for mildness, a lessening of IL-1α secretion, the mildness agents were added with the chemical irritant. When a reduction in IL-1α expression was observed, the mildness agents were successful. Theoretically, there are several mechanisms by which this could have been achieved at the cellular level. Without wishing to be bound to a particular theory or in any way limit the scope of the appended claims or their equivalents, it is presently believed that these mechanisms may include one or more of the following: the mildness agent could block the transcription of the DNA to RNA, translation of the RNA to protein, and/or release of the IL-1α from the cells. […] The mildness agent may also have stopped the cascade after the irritant works on the cell. Whatever the mechanism, the net result is the same. There is less IL-1α released by the cells which correlates to inhibition of events in the inflammatory cascade and ultimately, less inflammation.
These were prepared using a serial dilution technique: 1.0 g botanical was mixed well with 99.0 g dish detergent to give the 1.0% formulation; next, 10.0 g of the 1.0% solution was mixed well with 90.0 g of the dish detergent to give the 0.1% formulation; finally, 10.0 g of the 0.1% solution was mixed well with 90.0 g of the dish detergent to give the 0.01% formulation.

[1] = botanical concentration 0.01% by weight
[2] = botanical concentration 0.1% by weight
[3] = botanical concentration 1% by weight

| Compound | Percent IL-1 α Reduction AVG [%] | Percent IL-1 α Reduction [1] [%] | Percent IL-1 α Reduction [2] [%] | Percent IL-1 α Reduction [3] [%] |
| --- | --- | --- | --- | --- |
| O=C(O)c1ccccc1O.O[SiH2]O [D.S.B.C., silanediol salicylate] | 12.42 | 7.46 | 13.07 | 16.74 |
| N[C@@H](CCC(=O)O)C(=O)NCCc1c[nH]c2ccccc12 [GLISTIN, glutaurylamidoethyl indole] | 22.63 | 18.50 | 31.80 | 17.60 |
